Results from patent publication US5143911A, “Antibiotic C-3 di-hydroxyphenyl substituted cephalosporin compounds, compositions and method of use thereof” (Bristol-Myers Squibb Company, priority 1990, dated 1992).
Converted amounts (≈) assume the structure as drawn.

Legend:
B. fragilis A 22053 = assay: In vitro activity against anaerobes (MIC), two-fold serial agar dilution, GAM agar; assay type: cell-based; conditions: Bacteroides fragilis, A22053, Gn, Beta-Lactamase(-)
C. perfringens A9635 = assay: microbe, parasite or virus in culture; assay type: cell-based; conditions: Clostridium perfringens
Ps. aeruginosa (7) = assay: MIC, two-fold serial agar dilution, Mueller-Hinton agar (geometric mean, group Gn-III); assay type: cell-based; conditions: Pseudomonas aeruginosa, 7 strains
Protocol: (§1) For a primary evaluation of some representative compounds of this invention, minimum inhibitory concentrations (MIC's) were determined against 32 strains of test organisms by two-fold serial agar dilution method in Mueller-Hinton agar.
GnIII: Ps. aeruginosa (7)

S. marcescens IPM-16 = conditions: Serratia marcescens, IPM16, 18 h, pH 7.2
S. epidermidis 11-1230 = conditions: Staphylococcus epidermidis, 111230, 18 h, pH 7.2
S. aureus 209P = conditions: Staphylococcus aureus, 18 h, pH 7.2
S. epidermidis 11-1168 = assay type: cell-based; conditions: Staphylococcus epidermidis, 111168, pH 7.2, 32° C. 18 hr, 10^6 cells/ml
P. aeruginosa IPM-8 = conditions: Pseudomonas aeruginosa, IPM8, 18 h, pH 7.2
S. marcescens IPM-15 = conditions: Serratia marcescens, IPM15, 18 h, pH 7.2
P. cepacia No. 651 = conditions: Burkholderia cepacia, NO.651, 18 h, pH 7.2
S. aureus Smith = conditions: Staphylococcus aureus, 18 h, pH 7.2
E. faecalis A9808 = conditions: Enterococcus faecalis, A9808, 18 h, pH 7.2
P. aeruginosa KKA 19 = conditions: Pseudomonas aeruginosa, KKA19, 18 h, pH 7.2
S. aureus IPM-24 (MRSA) = conditions: Staphylococcus aureus, 18 h, pH 7.2
PCresistant S. aureus = assay: MIC, two-fold serial agar dilution, Mueller-Hinton agar (geometric mean, group Gp-Ib); assay type: cell-based; conditions: Staphylococcus aureus, penicillin-resistant S. aureus, 5 strains
Protocol: as §1
GpIb: PCresistant S. aureus

B. fragilis A 21916 = assay: In vitro activity against anaerobes (MIC), two-fold serial agar dilution, GAM agar; assay type: cell-based; conditions: Bacteroides fragilis, A21916, Gn, Beta-Lactamase(-)
[1] = test system: M. morganii(1), Ent. cloacae(2), and Ser. marcescens(2); assay: MIC, two-fold serial agar dilution, Mueller-Hinton agar (geometric mean, group Gn-II); assay type: cell-based; conditions: 5 strains
Protocol: as §1
GnII: M. morganii(1), Ent. cloacae(2), and Ser. marcescens(2)

M. luteus 1001 = conditions: Micrococcus luteus, 1001, 18 h, pH 7.2
E. coli Juhl = conditions: Escherichia coli, in Mus musculus, im, read-out: PD50
C. difficile A 21675 = assay: In vitro activity against anaerobes (MIC); assay type: cell-based; conditions: Clostridioides difficile, A21675, Gp, Clindamycin-resistant
E. coli 255 = conditions: Escherichia coli, 255, 18 h, pH 7.2

## CO/N=C(\C(=O)NC1C(=O)N2C(C(=O)O)=C(/C=C/COC(=O)c3ccc(O)c(O)c3)CS[C@H]12)c1csc(N)n1 (stereo partly drawn) [Ia, 7-[(Z)-2-(2-Aminothiazol-4-yl)-2-methoxyiminoacetamido]-3-[(E)-3-(3,4-dihydroxybenzoyloxy)-1-propen-1-yl]-3-cephem-4-carboxylic acid]
B. fragilis A 22053
  MIC: 0.8 µg/mL (≈ 1.39 µM)
C. perfringens A9635
  MIC: 0.2 µg/mL (≈ 0.347 µM)
Ps. aeruginosa (7)
  MIC: 1.9 µg/mL (≈ 3.3 µM)
S. marcescens IPM-16
  MIC: > 100 µg/mL
S. epidermidis 11-1230
  MIC: 3.1 µg/mL (≈ 5.39 µM)
S. aureus 209P
  MIC: 3.1 µg/mL (≈ 5.39 µM)
S. epidermidis 11-1168
  MIC: 3.1 µg/mL (≈ 5.39 µM)
P. aeruginosa IPM-8
  MIC: 6.3 µg/mL (≈ 10.9 µM)
S. marcescens IPM-15
  MIC: > 100 µg/mL
P. cepacia No. 651
  MIC: 12.5 µg/mL (≈ 21.7 µM)
S. aureus Smith
  MIC: 1.6 µg/mL (≈ 2.78 µM)
E. faecalis A9808
  MIC: 100 µg/mL (≈ 174 µM)
P. aeruginosa KKA 19
  MIC: 50 µg/mL (≈ 86.9 µM)
S. aureus IPM-24 (MRSA)
  MIC: > 100 µg/mL
PCresistant S. aureus
  MIC: 1.6 µg/mL (≈ 2.78 µM)
B. fragilis A 21916
  MIC: 1.6 µg/mL (≈ 2.78 µM)
[1]
  MIC: 0.46 µg/mL (≈ 0.799 µM)
M. luteus 1001
  MIC: 0.1 µg/mL (≈ 0.174 µM)
E. coli Juhl
  ED50: 0.05 mg/kg
C. difficile A 21675
  MIC: 12.5 µg/mL (≈ 21.7 µM)
E. coli 255
  MIC: 0.2 µg/mL (≈ 0.347 µM)
